The values that follow come from PubChem BioAssay (NCI).

What all share (assay): NCI-60 cell line screen, 48 h
The subject of test [1] is CCRF-CEM leukemia.
Test [2] concerns COLO 205 colon.
In test [3] the test system is HL-60(TB) leukemia.
Test [4] concerns HOP-92 NSCLC.
For test [5], the system named is NCI-H226 lung.
For test [6], the system named is NCI-H522 lung.
Test [7] deals with OVCAR-5 ovarian.
The subject of test [8] is SF-539 CNS.
Test [9] has as its system SK-MEL-28 melanoma.
In test [10] the test system is SW-620 colon.

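The compound was tested at five concentrations on cells cultured in 96-well plates, with a 48-hour exposure period. The concentration for 50% growth inhibition is given as GI50. TGI denotes the concentration required for complete inhibition of growth.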

As for `COc1cc2nc(C)nc(N[C@H](C)c3cc(N)cc(C(F)(F)F)c3)c2cc1O[C@H]1CCOC1`, the GI50 in [1] is 13.5 µM; in [2] it was 15.8 µM; in test [3] it was 14 µM; in [4], 0.0623 µM; in test [5], 16.9 µM; in test [6], 12.8 µM. In addition, the GI50 is 13.4 µM in test [7], 12.4 µM in test [8], 16 µM in test [9] and 14.6 µM in [10]. Further, the TGI came to 49.3 µM in test [1]; 33.4 µM in test [2]; 39.2 µM in test [3]; 7.31 µM in test [4]; 38.8 µM in [5]; 29.3 µM in [6]. For the same molecule, the TGI in test [7] came out at 28.5 µM; in test [8], 25.1 µM; in test [9], 29.6 µM; in [10] it was 31.3 µM.

Consider `CC1(C)OC(=O)C(=Cc2ccc(O)cc2)C(=O)O1`, for which the TGI in [1], in test [2], in test [3], in [4], in test [5] and in test [6] was > 100 µM each time. Besides, the TGI in test [7], in [8], in [9] and in [10] was > 100 µM in each case.

Take `O=C(NCCNc1nccc(-c2c(-c3cccc(O)c3)nc3sccn23)n1)c1ccccc1O`: the GI50 in test [1] is 1.21 µM; in test [2], 5.32 µM; in [3], 3.38 µM; in test [4] it was 2.92 µM; in [5], 9.24 µM; in [6], 4.24 µM. The GI50 was 13.3 µM in [7], 7.27 µM in test [8], 0.43 µM in test [9] and 5.86 µM in test [10]. Further, the TGI was 19.4 µM in [1]; 23.4 µM in [2]; > 29.4 µM in test [3]; 28.6 µM in test [4]; 32.3 µM in [5]; 16.9 µM in test [6]. Also, the TGI worked out at 65.3 µM in test [7], 24.5 µM in test [8], 33.3 µM in test [9] and 48.4 µM in [10].

Turning to `COc1ccc(-c2cc(-c3ccc(Nc4nc(Nc5ccccc5)nc(Nc5ccc(Cl)cc5)n4)cc3)nc(N)c2C#N)cc1`, the GI50 was 1.7 µM in test [1]; 1 µM in test [2]; 1.15 µM in [3]; 0.782 µM in [4]; 1.08 µM in [5]; 1.16 µM in [6]. The GI50 in test [7] is 1.13 µM; in [8], 0.857 µM; in test [9] it was 0.857 µM; in test [10], 1.04 µM. The TGI in test [1] is > 50 µM; in [2], 2.15 µM; in test [3], 6.41 µM; in [4], 2.62 µM; in test [5], 2.73 µM; in [6] it was 3.38 µM. The TGI in [7] was determined as 2.86 µM; in test [8], 1.77 µM; in test [9], 1.76 µM; in [10] it was 2.3 µM.

For `NC1CCC(Nc2nc(NCc3ccc(-c4ccco4)nc3)c3ncn(C4CCCC4)c3n2)CC1` (configuration not stated), the GI50 in [1] is 0.0362 µM; in test [2] it was 0.0143 µM; in [3], 0.0193 µM; in [4], 0.0275 µM; in test [5] it was 0.126 µM; in test [6] it was 0.0164 µM. Also, the GI50 is 0.0324 µM in test [7], 0.0379 µM in test [8], 0.0227 µM in [9] and 0.0117 µM in test [10]. Also, the TGI in [1] was determined as 1.88 µM; in test [2] it was 0.0314 µM; in test [3], 0.0729 µM; in test [4] it was 0.0803 µM; in test [6], 0.0737 µM; in test [7] it was 14.1 µM. The TGI turned out to be 0.204 µM in [8], 0.0686 µM in [9] and 11.5 µM in test [10].

With `COC(=O)Nc1nc2ccc(S(=O)c3ccccc3)cc2[nH]1` (configuration not stated), the GI50 was 5.16 µM in test [1]; 2.51 µM in [2]; 2.44 µM in test [3]; 9.88 µM in [4]; 4.06 µM in test [5]; 2.79 µM in test [6]. Moreover, the GI50 in test [7] was 9.12 µM; in test [8], 4.64 µM; in test [9] it was 3.78 µM; in test [10] it was 3.63 µM. Besides, the TGI in test [1] is > 100 µM; in [2], 7.78 µM; in [3] it was 6.5 µM; in test [4], > 100 µM; in test [5], > 100 µM; in test [6], 40.2 µM. The TGI was > 100 µM in test [7], 58.5 µM in [8], > 100 µM in test [9] and > 100 µM in test [10].

For `CCOc1ccccc1-n1c(CN2CCN(C(=O)COc3ccc(CNCCCCCCN4C5CCCC4CC(OC(=O)Nc4cc(C)ccc4OC)C5)cc3)CC2)nc2ccccc2c1=O` (configuration not stated), the GI50 in test [1] is 0.16 µM; in test [2], 1.78 µM; in test [3] it was 0.64 µM; in test [4], 1.37 µM; in test [5] it was 1.88 µM; in test [6] it was 1.79 µM. The GI50 in [7] is 1.9 µM; in test [8], 1.69 µM; in test [9], 1.81 µM; in [10], 0.757 µM. In addition, the TGI in test [1] was found to be 1.21 µM; in test [2] it was 3.69 µM; in [3] it was 1.35 µM; in [4], 2.76 µM; in [5], 3.91 µM; in [6], 3.45 µM. Further, the TGI in test [7] came to 3.45 µM; in [8], 3.14 µM; in test [9], 3.25 µM; in test [10] it was 2 µM.

With `CSc1ccccc1C#C/C=C\C#Cc1ccccc1N1CCCC1=O`, the TGI in [1] is > 50 µM; in test [2], > 12.6 µM; in [4], > 50 µM; in test [5], > 50 µM; in test [6] it was > 50 µM; in test [7], > 50 µM. Further, the TGI in [8] was > 50 µM; in test [9], > 50 µM; in [10], > 17.6 µM. Besides, the GI50 in test [3] was 2.43 µM; in [5], > 11.4 µM; in test [7], > 24.2 µM; in test [8] it was > 11.4 µM.

On to `O=C(Nc1ccc(I)cc1)c1cc([N+](=O)[O-])ccc1O`, for which the GI50 in [1] is 3.69 µM; in [2] it was 10.9 µM; in [3], 5.44 µM; in test [4], 0.709 µM; in [5] it was 6.19 µM; in test [6], 2.92 µM. In addition, the GI50 in [7] was 27.9 µM; in [8], 11.4 µM; in [9], 9.53 µM; in test [10], 15.5 µM. The TGI in [1] came to 50.1 µM; in [2], 28.1 µM; in test [3], 57.8 µM; in test [4], 3.99 µM; in test [5] it was 80.4 µM; in test [6], 15.9 µM. In addition, the TGI in test [7] was > 100 µM; in test [8] it was 80 µM; in test [9] it was 72.3 µM; in test [10], 54.5 µM.

`CCOC(=O)Nc1nc2ccc(OCC)cc2s1`: the GI50 in test [1] was > 100 µM; in test [2] it was 10.4 µM; in test [3], 7.56 µM; in test [4], > 62.7 µM; in test [5], > 100 µM; in [6], 6.49 µM. Also, the GI50 in test [7] is > 100 µM; in [8], 20.2 µM; in [9] it was > 60.7 µM; in [10] it was 4.25 µM. For the same molecule, the TGI in test [1], in test [2], in test [3], in test [4], in test [5] and in test [6] was > 100 µM throughout. Besides, the TGI in test [7], in test [8], in [9] and in test [10] was > 100 µM throughout.

`CC(=O)OC(C)C(=O)C1c2cccc(O)c2C(=O)c2c(O)cc(C)cc21` (configuration not stated): the TGI turned out to be 6.05 µM in test [1]; 3.01 µM in test [2]; 0.847 µM in [3]; 1.02 µM in test [4]; 1.03 µM in test [5]; 3.02 µM in [6]. Further, the TGI in test [7] is 2.59 µM; in [8] it was 0.589 µM; in test [9], 2.3 µM; in [10], 1.71 µM.

As to `Clc1cccc(Cc2cn3cc(-c4ccccc4)nc3s2)c1Cl`, the GI50 was > 100 µM in test [1]; > 100 µM in test [2]; > 100 µM in test [3]; 2.84 µM in test [4]; 27.3 µM in test [5]; 19.4 µM in [6]. Besides, the GI50 in [7] is > 100 µM; in test [8], 43.3 µM; in test [9] it was 54.4 µM; in test [10] it was > 100 µM. In addition, the TGI was > 100 µM in test [1]; > 100 µM in test [2]; > 100 µM in test [3]; 16.9 µM in [4]; > 100 µM in test [5]; > 100 µM in test [6]. For the same molecule, the TGI in test [7], in test [8], in [9] and in test [10] was > 100 µM throughout.

Turning to `CCOC(=O)C1=C(C)CC2C(=O)OC(=O)C2C1(C)C` (configuration not stated), the TGI in test [1], in [2], in test [3], in test [4], in [5] and in test [6] was > 100 µM each time. The TGI in test [7], in test [8], in test [9] and in test [10] was > 100 µM each time.

`O=C(N/C(=C\c1cc(Cl)ccc1Cl)c1nc2[nH]c(=S)[nH]c(=O)c2[nH]1)c1ccccc1`: the TGI in [1] was 69.7 µM; in [2], > 100 µM; in [3] it was 36.3 µM; in test [4] it was > 75.1 µM; in test [5], > 100 µM; in [6], > 100 µM. Moreover, the TGI in test [7] is > 100 µM; in test [8] it was > 76.7 µM; in [9], > 83.5 µM; in test [10] it was 36.5 µM.

As for `CN(C)c1ccc(-c2cc(-c3ccc(Nc4nc(Nc5ccc(Cl)cc5)nc(Nc5ccc(Cl)cc5)n4)cc3)no2)cc1`, the GI50 in [1] was 2.34 µM; in test [2], 2.89 µM; in test [3], 2.01 µM; in [4] it was 2.69 µM; in test [5], 20.2 µM; in test [6], 2.57 µM. Further, the GI50 in [7] was 17.3 µM; in test [8] it was 5.18 µM; in [9] it was 6.49 µM; in [10] it was 6.28 µM. Moreover, the TGI in test [1] is 6.47 µM; in test [2], 16 µM; in test [3], 4.73 µM; in [4], 10.6 µM; in test [5] it was > 100 µM; in test [6], 11.3 µM. Also, the TGI is 50.2 µM in [7], 21.2 µM in test [8], 46.9 µM in [9] and > 100 µM in test [10].

For the molecule `Fc1ccc(Nc2ncnc3ccc(-c4cnc5[nH]ccc5c4)cc23)cc1Cl`, the GI50 in test [1] was 7.83 µM; in [2], 3.58 µM; in test [3] it was 7.76 µM; in [4], 1.68 µM; in test [5] it was 1.99 µM; in test [6], 12.6 µM. The GI50 was 2.13 µM in test [7], 2.3 µM in test [8], 4.13 µM in test [9] and 4.02 µM in [10]. Also, the TGI in [1] is > 100 µM; in test [2], 46.3 µM; in test [3], 40.1 µM; in test [4] it was 5.49 µM; in [5] it was 4.97 µM; in test [6], 69.1 µM. In addition, the TGI in test [7] was 10.6 µM; in [8], 7.65 µM; in test [9], > 36.2 µM; in [10], > 47.3 µM.
